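Test compounds were applied to cells in 96-well plates for 48 hours at 5 doses. Abbreviation: GI50, concentration required for 50% inhibition of growth. At the TGI there is no net growth.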
What was measured:
Assay in all cases: NCI anticancer screen, dose series, 48 h
SNB-75 CNS = test system: SNB-75 CNS
UO-31 renal = test system: UO-31 renal
A498 renal = test system: A498 renal
COLO 205 colon = test system: COLO 205 colon
MALME-3M melanoma = test system: MALME-3M melanoma
HCC-2998 colon = test system: HCC-2998 colon
K-562 leukemia = test system: K-562 leukemia
SF-268 CNS = test system: SF-268 CNS
HT29 colon = test system: HT29 colon
LOX IMVI melanoma = test system: LOX IMVI melanoma
HCT-15 colon = test system: HCT-15 colon
786-0 renal = test system: 786-0 renal
OVCAR-3 ovarian = test system: OVCAR-3 ovarian
OVCAR-5 ovarian = test system: OVCAR-5 ovarian
SK-OV-3 ovarian = test system: SK-OV-3 ovarian
OVCAR-8 ovarian = test system: OVCAR-8 ovarian
MDA-MB-435 = test system: MDA-MB-435
M14 melanoma = test system: M14 melanoma
HOP-92 NSCLC = test system: HOP-92 NSCLC
U251 CNS = test system: U251 CNS
NCI/ADR-RES ovarian = test system: NCI/ADR-RES ovarian
SW-620 colon = test system: SW-620 colon
RPMI-8226 leukemia = test system: RPMI-8226 leukemia
RXF 393 renal = test system: RXF 393 renal
OVCAR-4 ovarian = test system: OVCAR-4 ovarian
NCI-H23 lung = test system: NCI-H23 lung
UACC-257 melanoma = test system: UACC-257 melanoma
PC-3 prostate = test system: PC-3 prostate
SK-MEL-28 melanoma = test system: SK-MEL-28 melanoma
IGROV1 ovarian = test system: IGROV1 ovarian
SF-295 CNS = test system: SF-295 CNS
CAKI-1 renal = test system: CAKI-1 renal
NCI-H226 lung = test system: NCI-H226 lung
BT-549 breast = test system: BT-549 breast
MOLT-4 leukemia = test system: MOLT-4 leukemia
NCI-H460 lung = test system: NCI-H460 lung
HS 578T breast = test system: HS 578T breast
HL-60(TB) leukemia = test system: HL-60(TB) leukemia
UACC-62 melanoma = test system: UACC-62 melanoma
SF-539 CNS = test system: SF-539 CNS
KM12 colon = test system: KM12 colon
T-47D breast = test system: T-47D breast
HOP-62 NSCLC = test system: HOP-62 NSCLC
HCT-116 colon = test system: HCT-116 colon
MDA-MB-231 breast = test system: MDA-MB-231 breast
SK-MEL-5 melanoma = test system: SK-MEL-5 melanoma
MCF7 breast = test system: MCF7 breast
NCI-H522 lung = test system: NCI-H522 lung
SR leukemia = test system: SR leukemia
DU-145 prostate = test system: DU-145 prostate
SN12C renal = test system: SN12C renal
CCRF-CEM leukemia = test system: CCRF-CEM leukemia
SK-MEL-2 melanoma = test system: SK-MEL-2 melanoma
A549 NSCLC = test system: A549 NSCLC
MDA-MB-468 breast = test system: MDA-MB-468 breast
SNB-19 CNS = test system: SNB-19 CNS
TK-10 renal = test system: TK-10 renal
ACHN renal = test system: ACHN renal
EKVX NSCLC = test system: EKVX NSCLC

COc1ccc(/C=C/C(=O)c2ccc(OC)c(S(N)(=O)=O)c2)c(C(F)(F)F)c1
GI50 (SNB-75 CNS): 3.22 µM | TGI (SNB-75 CNS): 15.4 µM | GI50 (UO-31 renal): 5.14 µM | TGI (UO-31 renal): 18.4 µM | GI50 (A498 renal): 18.1 µM | TGI (A498 renal): 37.8 µM | GI50 (COLO 205 colon): 4.76 µM | TGI (COLO 205 colon): 28.9 µM | GI50 (MALME-3M melanoma): 5.96 µM | TGI (MALME-3M melanoma): 20.6 µM | GI50 (HCC-2998 colon): 10.7 µM | TGI (HCC-2998 colon): 24.2 µM | GI50 (K-562 leukemia): 3.24 µM | TGI (K-562 leukemia): 12.6 µM | GI50 (SF-268 CNS): 3.35 µM | TGI (SF-268 CNS): 16.5 µM | GI50 (HT29 colon): 3.2 µM | TGI (HT29 colon): 11.4 µM | GI50 (LOX IMVI melanoma): 2.31 µM | TGI (LOX IMVI melanoma): 6.97 µM | GI50 (HCT-15 colon): 2.32 µM | TGI (HCT-15 colon): 6.72 µM | GI50 (786-0 renal): 3.16 µM | TGI (786-0 renal): 14.4 µM | GI50 (OVCAR-3 ovarian): 2.89 µM | TGI (OVCAR-3 ovarian): 10.4 µM | GI50 (OVCAR-5 ovarian): 2.21 µM | TGI (OVCAR-5 ovarian): 6.33 µM | GI50 (SK-OV-3 ovarian): 15.5 µM | TGI (SK-OV-3 ovarian): 43 µM | GI50 (OVCAR-8 ovarian): 2.34 µM | TGI (OVCAR-8 ovarian): 6.27 µM | GI50 (MDA-MB-435): 4.23 µM | TGI (MDA-MB-435): 19.6 µM | GI50 (M14 melanoma): 9.19 µM | TGI (M14 melanoma): 25.2 µM | GI50 (HOP-92 NSCLC): 11 µM | TGI (HOP-92 NSCLC): 34.8 µM | GI50 (U251 CNS): 2.58 µM | TGI (U251 CNS): 7.32 µM | GI50 (NCI/ADR-RES ovarian): 2.61 µM | TGI (NCI/ADR-RES ovarian): 10.6 µM | GI50 (SW-620 colon): 2.07 µM | TGI (SW-620 colon): 6.19 µM | GI50 (RPMI-8226 leukemia): 3.48 µM | TGI (RPMI-8226 leukemia): > 100 µM | GI50 (RXF 393 renal): 2.79 µM | TGI (RXF 393 renal): 11.4 µM | GI50 (OVCAR-4 ovarian): 3.47 µM | TGI (OVCAR-4 ovarian): 15.7 µM | GI50 (NCI-H23 lung): 3.4 µM | TGI (NCI-H23 lung): 14.2 µM | GI50 (UACC-257 melanoma): 9.28 µM | TGI (UACC-257 melanoma): 21.9 µM | GI50 (PC-3 prostate): 4.57 µM | TGI (PC-3 prostate): 18.5 µM | GI50 (SK-MEL-28 melanoma): 11.6 µM | TGI (SK-MEL-28 melanoma): 23.8 µM | GI50 (IGROV1 ovarian): 3.98 µM | TGI (IGROV1 ovarian): 15.8 µM | GI50 (SF-295 CNS): 4.37 µM | TGI (SF-295 CNS): 22.5 µM | GI50 (CAKI-1 renal): 3.82 µM | TGI (CAKI-1 renal): 14.6 µM | GI50 (NCI-H226 lung): 2.11 µM | TGI (NCI-H226 lung): 5.44 µM | GI50 (BT-549 breast): 5.04 µM | TGI (BT-549 breast): 16.4 µM | GI50 (MOLT-4 leukemia): 2.81 µM | TGI (MOLT-4 leukemia): 13.7 µM | GI50 (NCI-H460 lung): 2.03 µM | TGI (NCI-H460 lung): 6.2 µM | GI50 (HS 578T breast): 2.84 µM | TGI (HS 578T breast): 19.1 µM | GI50 (HL-60(TB) leukemia): 4.7 µM | TGI (HL-60(TB) leukemia): 30.7 µM | GI50 (UACC-62 melanoma): 4.7 µM | TGI (UACC-62 melanoma): 18.1 µM | GI50 (SF-539 CNS): 1.8 µM | TGI (SF-539 CNS): 3.4 µM | GI50 (KM12 colon): 3.89 µM | TGI (KM12 colon): 19 µM | GI50 (T-47D breast): 4.06 µM | TGI (T-47D breast): 24.7 µM | GI50 (HOP-62 NSCLC): 3.23 µM | TGI (HOP-62 NSCLC): 14.4 µM | GI50 (HCT-116 colon): 2.41 µM | TGI (HCT-116 colon): 6.14 µM | GI50 (MDA-MB-231 breast): 2.37 µM | TGI (MDA-MB-231 breast): 6.14 µM | GI50 (SK-MEL-5 melanoma): 3.42 µM | TGI (SK-MEL-5 melanoma): 15.1 µM | GI50 (MCF7 breast): 2.58 µM | TGI (MCF7 breast): 10.6 µM | GI50 (NCI-H522 lung): 2.51 µM | TGI (NCI-H522 lung): 14.3 µM | GI50 (SR leukemia): 3 µM | TGI (SR leukemia): 19.5 µM | GI50 (DU-145 prostate): 3.39 µM | TGI (DU-145 prostate): 12.8 µM | GI50 (SN12C renal): 2.96 µM | TGI (SN12C renal): 11.4 µM | GI50 (CCRF-CEM leukemia): 2.95 µM | TGI (CCRF-CEM leukemia): 9.7 µM | GI50 (SK-MEL-2 melanoma): 3.78 µM | TGI (SK-MEL-2 melanoma): 15.9 µM | GI50 (A549 NSCLC): 2.99 µM | TGI (A549 NSCLC): 11.4 µM | GI50 (MDA-MB-468 breast): 2.37 µM | TGI (MDA-MB-468 breast): 12 µM | GI50 (SNB-19 CNS): 3.95 µM | TGI (SNB-19 CNS): 16.1 µM | GI50 (TK-10 renal): 13.4 µM | TGI (TK-10 renal): 29.9 µM | GI50 (ACHN renal): 4.28 µM | TGI (ACHN renal): 15.7 µM | GI50 (EKVX NSCLC): 3.55 µM | TGI (EKVX NSCLC): 16.1 µM

— PubChem BioAssay (NCI)
